Source: PubChem BioAssay AID652101 (NMMLSC, 2013)
Active and inactive are the calls of the source.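 How the source made its calls: active means at least 15% inhibition at the top concentration together with an EC50 under 10 microM; inactive means the rest.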

Test: potency against LAMP-1 externalization in TALL-104 – TALL-104 cells, flow cytometry, CherryPick01, dose response (AID 652101);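 further: 0% = stimulated DMSO control and 100% = unstimulated control wells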
Conditions: TALL-104 lytic granule exocytosis, LAMP-1 flow cytometry; at 15.1 µM (top of the series)

Row | SMILES | inhibition
1 | COC(=O)c1ccc(NC(=O)CSc2nc3ccc(N4C(=O)C5C6C=CC(C6)C5C4=O)cc3s2)cc1 (stereo not given) | 92.5% (inactive)
2 | CC(C)CNC(=O)c1c(N)n(Cc2ccc3c(c2)OCO3)c2nc3ccccc3nc12 | 69.2% (inactive)

Same assay, conditions: TALL-104 lytic granule exocytosis, LAMP-1 flow cytometry; at 15.1 µM (top of the series); stimulated with 1 µM thapsigargin, 50 nM PMA

Row | SMILES | inhibition
3 | Cc1cc(F)ccc1S(=O)(=O)Nc1ccccc1C(=O)Nc1ccccc1-c1nc2ccccc2[nH]1 | 106% (inactive)
4 | CC(=O)Nc1ccc2sn(-c3ccccc3)c(=O)c2c1 | 81.8% (inactive)
5 | Cc1ccc(Cl)cc1-c1cc(C(=O)NCc2ccc(C(F)(F)F)cc2)[nH]n1 | 103% (inactive)
6 | OCCN1CCN(CC(O)COc2ccc(C34CC5CC(CC(C5)C3)C4)cc2)CC1 (stereo not given) | 85.8% (inactive)
7 | CC1(C(=O)OCC(=O)Nc2nc(-c3ccc(F)c(F)c3)cs2)CC1(Cl)Cl (stereo not given) | 95% (inactive)
8 | COc1ccc2sc(N(CCCN(C)C)C(=O)c3ccc(S(=O)(=O)N4CCc5ccccc5C4)cc3)nc2c1 | 50% (inactive)
9 | OC(CNCC(c1ccc(Cl)cc1Cl)c1c[nH]c2ccccc12)c1ccccc1 (stereo not given) | 81.7% (inactive)
10 | COc1ccc(-c2cc(NC=O)c3ncc(-c4ccccc4)n3c2)cc1OC | 89.8% (inactive)
11 | O=C(Nc1nc(-c2ccccc2)cs1)c1ccc2c(=O)n3c(nc2c1)CCCCC3 | 74.2% (inactive)
12 | COC(=O)c1ccc(CCc2cc(O)c(Br)cc2O)cc1 | 108% (inactive)
13 | O=C1OC(c2ccccc2)(c2cc(Br)ccc2O)c2ccccc21 (stereo not given) | 109% (inactive)
14 | O=c1c2cc(F)ccc2sn1-c1ccccc1Cl | 95.2% (inactive)
15 | O=C1ON=C(c2ccccc2)/C1=C/c1ccc(-c2ccccc2[N+](=O)[O-])o1 | 102% (inactive)
16 | CC(C)c1ccccc1OCC(O)CN(CC(O)COc1cccc2ccccc12)C(C)C (stereo not given) | 101% (inactive)
17 | CC(=O)Nc1cc(-c2ccccc2F)cn2c(-c3ccccc3)cnc12 | 106% (inactive)
18 | COc1cccc(-c2cnc3c(NC=O)cc(-c4ccccc4)cn23)c1 | 101% (inactive)
19 | COc1ccc(N(CC(=O)NCCSc2ccccn2)S(=O)(=O)c2ccccc2)c(OC)c1 | -7.92% (inactive)
20 | CCOc1ccc2nc(N(CCCN(C)C)C(=O)c3ccc(S(=O)(=O)N4CCc5ccccc5C4)cc3)sc2c1 | 37% (inactive)
21 | CCOc1ccc(C(=O)CCN2CCCCCC2)cc1 | 91.4% (inactive)
22 | COc1ccc2[nH]c3c(N4CCc5ccccc5C4)ncnc3c2c1 | 89.2% (inactive)
23 | CCc1nc2ccc(C(=O)NC3CCN(Cc4ccccc4)CC3)cn2c1N(C)Cc1cc2ccccc2s1 | 101% (inactive)
24 | O=C(CCN1CCc2ccccc2C(c2ccccc2)C1)c1ccc2c(c1)OCCO2 (stereo not given) | 101% (inactive)

Row | SMILES | inhibition
25 | C=C(C)COc1ccc(-c2n[nH]c(C)c2-c2ccc(OC)cc2)c(O)c1 | 106% (inactive)
26 | O=C(Nc1ccc2nc(-c3cccs3)c(-c3cccs3)nc2c1)NC1CC1 | 68.3% (inactive)
27 | COC(=O)c1ccc(NCc2c(O)ccc(O)c2Br)cc1Cl | 72.6% (inactive)
28 | O=C(Nc1nc2ccc(SC(F)F)cc2s1)c1ccc(NS(=O)(=O)c2ccc(F)c(F)c2)cc1 | 105% (inactive)
29 | CCOCCCNC(=S)N1CCCN(c2nc3c(C)c(C)ccc3cc2C#N)CC1 | 83.8% (inactive)
30 | COCCNc1nc(NCc2cccc(OC)c2)c2sc(-c3ccccc3)cc2n1 | 105% (inactive)
31 | O=c1c2ccc(F)cc2sn1-c1ccccc1 | 75.9% (inactive)
32 | COc1cc2c(cc1OC)C(c1ccc(-c3ccc(Cl)c(Cl)c3)o1)=NCC2 | 88.4% (inactive)
33 | N#Cc1c(NC(=O)c2ccc(Br)o2)n(-c2ccccc2)c2nc3ccccc3nc12 | -12.1% (inactive)
34 | COC(=O)c1c(NC(=O)c2ccc(C(=O)c3ccccc3)cc2)sc2c1CC(C)(C)NC2(C)C | 90.2% (inactive)
35 | COc1ccc(Cl)c(-c2cc(C(=O)NCc3ccc(C(F)(F)F)cc3)[nH]n2)c1 | 103% (inactive)
36 | Cc1c(C(=O)OCC(=O)Nc2cccc(S(N)(=O)=O)c2)oc2c1ccc1ccccc12 | 104% (inactive)
37 | CCOc1ccc(Cl)cc1-c1cc(C(=O)NCc2cccs2)[nH]n1 | 79.8% (inactive)
38 | Cn1c(=O)c(NC2CCCCC2)c2c3c(cccc31)C(=O)c1ccccc1-2 | -4.68% (inactive)
39 | CCCCCc1c(-c2cccc(F)c2)ncn1CCc1ccccc1OC | 102% (inactive)
40 | O=c1c(Cl)c2oc3ccccc3nc-2c2ccccc12 | -0.07% (inactive)
41 | CN(c1ccccc1)S(=O)(=O)c1cccc(C(=O)NCCc2c[nH]c3ccccc23)c1 | 42.1% (inactive)
42 | C=CCNc1nc(NCc2ccc(N(C)C)cc2)c2sc(-c3ccccc3)cc2n1 | -13.9% (inactive)
43 | CCCNC(=O)Cn1sc2nc(C)cc(C)c2c1=O | 97.3% (inactive)
44 | O=c1c2ccccc2sn1-c1ccc(Cl)cc1 | 103% (inactive)
45 | O=C(Nc1ccc2nc(-c3cccs3)c(-c3cccs3)nc2c1)N1CCOCC1 | -2.59% (inactive)
46 | COC(=O)c1ccc(N2CCN(C)CC2)c(NC(=O)c2sc3ccccc3c2Cl)c1 | 70.3% (inactive)

Row | SMILES | inhibition
47 | Oc1ccccc1Nc1nc(NCc2ccccc2)c2ccccc2n1 | 90.6% (inactive)
48 | O=[N+]([O-])c1cccc(-c2cc(-c3cc(Br)ccc3O)[nH]n2)c1 | 67.8% (inactive)
49 | O=C(Nc1nc2ccccc2n1CCN1CCOCC1)c1ccc(COc2ccccc2Br)o1 | 102% (inactive)
50 | CCOc1ccccc1CNC(=O)C1CCN(c2nnc(C)c3c(C)n(-c4ccc(C)cc4)nc23)CC1 | 59.4% (inactive)
51 | c1ccc(CCNc2ccnc3cc4ccccc4cc23)cc1 | 90.2% (inactive)
52 | O=CNc1cc(-c2ccsc2)cn2c(-c3ccccc3)cnc12 | 105% (inactive)
53 | Oc1ccccc1Nc1nc(NCc2ccco2)c2ccccc2n1 | 107% (inactive)
54 | CCCCN(CCCC)c1nc(-c2ccncc2)nc2ccccc12 | 85.6% (inactive)
55 | CCOc1cc(CNCCc2ccc(S(N)(=O)=O)cc2)ccc1OCc1ccc(Cl)cc1 | 48.5% (inactive)
56 | COc1cccc2c1C(=O)c1ccc3ccccc3c1C2=O | 18.2% (inactive)
57 | CCOC(=O)c1ccc(NC(=O)c2ccc(C)c(S(=O)(=O)N3CCOCC3)c2)cc1 | 102% (inactive)
58 | CSc1cccc(NC(=S)N(CCCN2CCCC2)Cc2cccn2Cc2ccc(Cl)cc2)c1 | 65.2% (inactive)
59 | Cc1ccc2c3c(cccc13)-c1ccccc1C2=O | 4.2% (inactive)
60 | COc1ccc(C2CC(c3cccs3)=NN2c2nc(C)c(C(C)=O)s2)cc1OC (stereo not given) | 2.08% (inactive)
61 | Cc1ccc(C(=O)N/C(=C\c2ccc(-c3ccc(Br)cc3)o2)C(=O)NCCCN(C)C)cc1 | -10.6% (inactive)
62 | OC1(c2cccc(C(F)(F)F)c2)CCN(c2ncnc3c2[nH]c2ccc(F)cc23)CC1 | 107% (inactive)
63 | Cc1ccc2nc(-c3ccc(NC(=S)NC4CC(C)(C)NC(C)(C)C4)cc3)sc2c1 | 5.48% (inactive)
64 | CC(C)(c1ccccc1)c1ccc(OCC(O)CNC2CCN(Cc3ccccc3)CC2)cc1 (stereo not given) | 31.5% (inactive)
65 | CN1CCN(CCCNC(=O)c2ccc(/C=C3\Sc4ccccc4N(Cc4ccc(F)cc4)C3=O)cc2)CC1 | 89.7% (inactive)
66 | Cc1cncn1CCc1nc2c3ccccc3nc(SCC(=O)Nc3cccc(Cl)c3)n2n1 | 104% (inactive)
67 | Brc1ccccc1C1Nc2cccc3cccc(c23)N1 | -2.38% (inactive)
68 | CCOC(=O)c1cnc2ccc(OCC)cc2c1N(C)Cc1ccccc1 | 69.7% (inactive)

Row | SMILES | inhibition
69 | O=[N+]([O-])c1ccc2nc(/C=C/c3ccc(Cl)cc3)[nH]c2c1 | 98.6% (inactive)
70 | COc1ccc(-c2cc(NC=O)c3ncc(-c4cccc(OC)c4)n3c2)cc1 | 101% (inactive)
71 | Cc1cc(C)c2sc(N(CCCN(C)C)C(=O)c3ccc(S(=O)(=O)N4CCc5ccccc5C4)cc3)nc2c1 | -21.4% (inactive)
72 | CN(C)CCNC(=O)c1ccc(-c2cn3c(-c4ccc(Oc5ccccc5)cc4)cnc3cn2)cc1 | 81.6% (inactive)
73 | CN1CCN(c2cc(-c3ccccc3)nc3cc(-c4ccc(F)cc4)nn23)CC1 | 61.3% (inactive)
74 | CCOc1ccc(-c2cc(C(=O)NCCCn3ccnc3)c3cc(Br)ccc3n2)cc1 | 25.6% (inactive)
75 | CCOC(=O)c1c(NC(=O)CSc2nnnn2-c2ccccc2OCC)sc2c1CC(C)(C)NC2(C)C | 84.6% (inactive)
76 | NCCc1c(-c2ccccc2)n(-c2ccccc2)c2ccccc12 | 68.2% (inactive)
77 | N#Cc1ccc(NC(=O)Nc2ccc(Oc3ccc(NC(=O)Nc4ccc(C#N)cc4)cc3)cc2)cc1 | 33.8% (inactive)
78 | CN(C)CCCNC(=S)NCC(c1ccc(Cl)cc1Cl)c1c[nH]c2ccccc12 (stereo not given) | 92.7% (inactive)
79 | CCCCC[C@@H](C)N1C[C@H](COCc2ccccc2)Oc2cc(N3CC[C@@H](N(C)C)C3)ccc2S1(=O)=O | 65% (inactive)
80 | CCc1ccc2nc(N(CCCN(C)C)C(=O)c3ccc(S(=O)(=O)N4CCc5ccccc5C4)cc3)sc2c1 | 81.8% (inactive)
81 | COc1ccc(N2C(=O)CC(Sc3n[nH]c(-c4ccccc4)n3)C2=O)cc1 (stereo not given) | 95.2% (inactive)
82 | CCC(C)Nc1nc(-c2cccc(OC)c2O)nc2ccccc12 (stereo not given) | 101% (inactive)
83 | Nc1c(C(=O)NCc2ccc(F)cc2)c2nc3ccccc3nc2n1CCCN1CCOCC1 | 72.5% (inactive)
84 | CN1CCN(c2ccc(NC(=O)c3ccc(-c4ccc(Cl)cc4)o3)cc2)CC1 | 97.9% (inactive)
85 | c1ccc(COc2ccc(-c3cc4nc(NCCCn5ccnc5)ccn4n3)cc2)cc1 | 106% (inactive)
86 | CCCCNc1c(-c2ccc(OC)c(SC3CCCCC3)c2)nc2ccc(C)cn12 | 103% (inactive)
87 | COc1ccc([N+](=O)[O-])cc1Nc1c2ccccc2nc2ccccc12 | 79.8% (inactive)
88 | CCC(=C(c1ccc(OC)cc1)c1ccc(OC)cc1)c1cn(CC(O)CN2CCN(C)CC2)c2ccccc12 (stereo not given) | 87.4% (inactive)
89 | Cc1cc(C(=O)CSc2nc3ccccc3[nH]2)c(C)n1CC1CCCO1 (stereo not given) | 89.3% (inactive)
90 | CCc1ccc(CNC(=O)C2CCCN(c3nnc(C)c4c(C)n(-c5ccccc5)nc34)C2)cc1 (stereo not given) | 97.2% (inactive)
